Read-outs that look alike come from different tables or passages of the source. Where a SMILES comes first, the peptide text is derived from it. Bridges are numbered along the chain shown (N, C = ends). [ ]: non-standard residue; d: D form. The star is where a group is joined. Ileψ(thiazoline)Cys = CC[C@H](C)[C@H](N)C1=N[C@H](C(=O)*)CS1; dOrn = NCCC[C@@H](N)C(=O)O
Tests used:
[1] = system: S. enterica (ATCC 700720)
[2] = system: P. multocida (ATCC 11039); settings: for Bacitracin (log reduction alone): BAC 32 μg/mL
[3] = system: C. perfringens (ATCC 12919); type: cell-based
[4] = Poultry study in feed (weight gain); type: in vivo, chicks; settings: dosage 55 mg/kg in feed; treated feed fed for 8 days
Description: Various doses of two different functionalized chitosan-arginines were mixed in feed, both originally 84% degree of deacetylation. “10% functionalized” has a MW of 39 kDa, 12% functionalized, % DDA=82 and polydispersity index (PDI) of 1.5. “30% functionalized” has a MW of 27 kDa, 26% functionalized, % DDA=82 and polydispersity index (PDI) of 1.7. Dosing of feed may be irregular due to challenges in mixing extremely small quantities of material uniformly (sprayed on cornmeal from water solution, mixed with feedmeal). Twelve replicate pens of five chicks were used for each treatment. Treated feed was fed for 8 days, and weight gain and feed conversion were examined after 21 days (comparison with day 1). Awt21 is the average weight gain after 21 days and P Diff is the statistical P value between the measured and control.

Molecule: CC[C@H](C)[C@H](N)C1=N[C@H](C(=O)N[C@@H](CC(C)C)C(=O)N[C@H](CCC(=O)O)C(=O)N[C@H](C(=O)N[C@H]2CCCCNC(=O)[C@H](CC(N)=O)NC(=O)[C@@H](CC(=O)O)NC(=O)[C@H](Cc3cnc[nH]3)NC(=O)[C@@H](Cc3ccccc3)NC(=O)[C@H]([C@@H](C)CC)NC(=O)[C@@H](CCCN)NC2=O)[C@@H](C)CC)CS1 [Bacitracin] ({Ileψ(thiazoline)Cys}-L[dE]IK[dOrn]I[dF]H[dD]N; lactam 4-C)
- Bacitracin (log reduction alone) ([1]; Assay 1, BAC 4 μg/mL): 0.08 log
- Bacitracin (log reduction alone) ([1]; Assay 1, BAC 8 μg/mL): 0.08 log
- Bacitracin (log reduction alone) ([1]; Assay 2, BAC 2 μg/mL): 0.2 log
- Bacitracin (log reduction alone) ([1]; Assay 2, BAC 4 μg/mL): 0 log
- Bacitracin (log reduction alone) ([2]; Assay 1): 0 log
- Bacitracin (log reduction alone) ([2]; Assay 2): 0.2 log
- bactericidal concentration ([2]; P. multocida (ATCC 11039)): > 128 µg/mL

Molecule: CN(C)[C@@H]1C(O)=C(C(N)=O)C(=O)[C@@]2(O)C(O)=C3C(=O)c4c(O)cccc4[C@@](C)(O)[C@H]3C[C@@H]12 [Tetracycline]
- Tetracycline (log reduction alone) ([3]; Assay 1, TET 0.05 μg/mL): 0.1 log
- Tetracycline (log reduction alone) ([3]; Assay 2, TET 0.2 μg/mL): 0.1 log

Molecule: Penicillin
- Awt21 (average weight gain after 21 days) [4]: 0.852 kg
